Bounds are passed on as bounds.

This assay has as its target Lysine-specific histone demethylase 1A (Homo sapiens, UniProt O60341). The assay can be described thus: In Vitro Enzyme Inhibition Assay: This assay determines the ability of a test compound to inhibit LSD1 demethylase activity.
For the compound `Cn1c(N2CCC(N)CC2)nc(-c2ccc(C#N)c(F)c2)c(-c2ccc3c(cnn3C)c2)c1=O`, the IC50 is less than 100 nM.
Next, `Cn1c(N2CCC(N)CC2)nc(-c2ccc(O)cc2)c(-c2ccc3c(ccn3C)c2)c1=O`: greater than 10000 nM; `Cn1cc2cc(-c3c(-c4ccc(C#N)cc4)nc(N4CCC(N)CC4)n(C)c3=O)ccc2n1`: less than 100 nM; `Cn1c(N2CCC(N)CC2)nc(-c2ccc(C#N)c(F)c2)c(-c2ccc3cc[nH]c3c2)c1=O`: less than 100 nM.
In turn, `Cn1c(N2CCC(N)CC2)nc(-c2ccc(C#N)c(F)c2)c(-c2ccc(C(F)(F)F)nc2)c1=O` returned a 50% inhibitory concentration (IC50) of less than 100 nM.
Next, `Cn1c(N2CCC(N)CC2)nc(-c2ccc(C#N)cc2)c(-c2ccc3c(cnn3C)c2)c1=O`: less than 100 nM.
Next, `Cn1c(N2CCC(N)CC2)nc(-c2ccc(C#N)c(F)c2)c(-c2ccc3c(ccn3C)c2)c1=O`: less than 100 nM.

Values taken from ChEMBL document CHEMBL5725765, “Inhibitors of lysine specific demethylase-1” (2017).
